Earlier results on one molecule are cited in patent US20090318549A1, “COMBINATION TREATMENT OF GLAUCOMA” (QLT Plug Delivery, Inc., priority 2008, published 2009).

The conditions of data set [1]: man, after topical administration.

Consider `CC(C)OC(=O)CCC/C=C\C[C@@H]1[C@@H](CC[C@@H](O)CCc2ccccc2)[C@H](O)C[C@@H]1O` [Latanoprost, isopropyl-(Z)-7[(1R,2R,3R,5S)3,5-dihydroxy-2-[(3R)-3-hydroxy-5-phenylpentyl]cyclopentyl]-5-heptenoate], for which the “solubility in acetone, ethanol, ethyl acetate, isopropanol, methanol and octanol” value (acetone, ethanol, ethyl acetate, isopropanol, methanol, octanol) is on record as “freely soluble”. For the setting “acetonitrile”, the solubility in acetonitrile entry was “very soluble”. In addition, the solubility in water result (water) is reported as “practically insoluble”. Also, the “time at which the peak concentration in the aqueous humor is reached” value in data set [1] is “about two”.
